Laboratory results as given in patent US10273468B2 (priority 2016, dated 2019).
“Also recorded” adds a separate entry of the source. Where two headings read alike, the source gives them in different places.

Legend:
[1] = target: T1, Tet(55) (Unknown prokaryotic organism, UniProt A0A0H4TXY1); assay: biochemical
[2] = target: T2, Tet(56) (Legionella longbeachae serogroup 1, UniProt D3HKY4); format: biochemical, L. longbeachae; conditions: 1 mM anhydrotetracycline, 0.1 mM tetracycline
[3] = target: T1, Tet(55); format: biochemical; conditions: 1 mM anhydrotetracycline, 0.1 mM tetracycline
[4] = target: T2, Tet(56); assay: biochemical
[5] = system: Tet(47-56); conditions: by Tet(47-56); cited from earlier work
[6] = target: T3, Tet(X) (Bacteroides thetaiotaomicron, UniProt Q93L51); format: biochemical; conditions: 1 mM anhydrotetracycline, 0.1 mM tetracycline
[7] = target: T1, Tet(55); assay: biochemical; remark: listed apart in the source
[8] = system: Tet(51); format: biochemical; conditions: 1 mM anhydrotetracycline, 0.1 mM tetracycline
[9] = target: T3, Tet(X); conditions: by Tet(X); cited from earlier work
[10] = target: T4, Tet(50) (Unknown prokaryotic organism, UniProt A0A059WYP6); format: biochemical; conditions: 1 mM anhydrotetracycline, 0.1 mM tetracycline
[11] = system: L. longbeacheae; format: cell-based
[12] = target: T4, Tet(50); assay: biochemical

## Cc1c2c(c(O)c3c(O)ccc(Cl)c13)C(=O)[C@]1(O)C(=O)C(C(N)=O)=C(O)[C@@H](N(C)C)[C@@H]1C2 [anhydrochlortetracycline, (4S,4aS,12aS)-7-chloro-4-(dimethylamino)-3,10,11,12a-tetrahydroxy-6-methyl-1,12-dioxo-1,4,4a,5,12,12a-hexahydrotetracene-2-carboxamide]
[1]
  IC50: 9 ± 1 µM

## CN(C)[C@@H]1C(O)=C(C(N)=O)C(=O)[C@@]2(O)C(=O)c3c(cc4c(Cl)ccc(O)c4c3O)C[C@@H]12 [anhydrodemeclocycline, (4S,4aS,12aS)-7-chloro-4-(dimethylamino)-3,10,11,12a-tetrahydroxy-1,12-dioxo-1,4,4a,5,12,12a-hexahydrotetracene-2-carboxamide]
[1]
  IC50: 9 ± 1 µM

## Cc1c2c(c(O)c3c(O)ccc(I)c13)C(=O)[C@]1(O)C(=O)C(C(N)=O)=C(O)[C@@H](N(C)C)[C@@H]1C2 [anhydroiodotetracycline, (4S,4aS,12aS)-4-(dimethylamino)-3,10,11,12a-tetrahydroxy-7-iodo-6-methyl-1,12-dioxo-1,4,4a,5,12,12a-hexahydrotetracene-2-carboxamide]
[1]
  IC50: 6 ± 1 µM

## Cc1c2c(c(O)c3c(O)cccc13)C(=O)[C@]1(O)C(=O)C(C(N)=O)=C(O)[C@@H](N(C)C)[C@@H]1C2 [anhydrotetracycline]
[2]
  effect on enzymatic tetracycline degradation (HPLC): tetracycline is not degraded
[3]
  effect on enzymatic tetracycline degradation (HPLC): sufficient to decrease or prevent tetracycline degradation
[4]
  IC50: 37.1 ± 1.1 µM
[5]
  enzymatic degradation: not degraded
[6]
  effect on enzymatic tetracycline degradation (HPLC): able to prevent tetracycline degradation; also recorded: sufficient to decrease or prevent tetracycline degradation
[7]
  IC50: 25.6 ± 1.2 µM
[8]
  effect on enzymatic tetracycline degradation (HPLC): sufficient to decrease or prevent tetracycline degradation
[9]
  enzymatic degradation: slowly degraded
[10]
  effect on enzymatic tetracycline degradation (HPLC): sufficient to decrease or prevent tetracycline degradation
[11]
  synergy with tetracycline: synergy was not observed
[12]
  IC50: 83.2 ± 1.2 µM
